Data from patent US20100173332A1, “Method for the Fluorescent Detection of Nitroreductase Activity Using Nitro-Substituted Aromatic Compounds” (Auckland Uniservices Limited, priority 2006, published 2010).
Entries after “also recorded” stand apart in the source; their conditions may differ. Structures can show the parent of a compound that is named as a salt. Values belong to the compound of their own block, whether it stands above or below them.

What was measured:
[1] = Aerobic/anaerobic stability in cell-free culture media (fluorescence); assay type: physicochemical; settings: 100 μM, 37° C., 4 hr, air or 95% N2
Protocol: Compounds 1-15 or methyl 7-nitrocoumarin carboxylate (methyl 7-nitro-2-oxo-2H-chromene-3-carboxylate) or 7-nitrocoumarin-3-carboylic acid or 6-chloro-9-nitro-5H-benzo[a]phenoxazin-5-one were added to a final concentration of 100 μM in cell-free culture media and were held at 37° C., 5% CO2 for 4 hr under either air or 95% N2. The fluorescence signal was monitored at 355/460 except for compounds 4 and 11 that were monitored at 405/585 and compounds 8, 10 and 6-Cl-9-nitro-5-oxo-5H-benzo[a]phenoxazine that were monitored at 355/585, 355/535 and 530/585 respectively (FIG. 12).

[2] = Aqueous stability in minimal essential media in the absence of cells (background fluorescence); assay type: physicochemical; settings: for increase in background florescence in culture media: 300 μM, minimal essential media, 37° C., 5% CO2, 355/460, over 7.8 hours; for aqueous stability compared with methyl-7-nitrocoumarin carboxylate and 7-nitrocoumarin-3-carboxylic acid: FIG. 11
Protocol: In a further experiment, the aqueous stability of compounds 1 and 2 were compared with the compounds methyl-7-nitrocoumarin carboxylate and 7-nitrocoumarin-3-carboxylic acid in the absence of cell culture. Minimal essential media was equilibrated to 37° C., 5% CO2 for 2 hr and compounds were added to a final concentration of 300 μM. […]

[3] = molecular target: T1, NAD(P)H dehydrogenase quinone 1 (DT-diaphorase; NQO1) (Homo sapiens, UniProt P15559); experiment: Detecting human aerobic nitroreductase activity in MDA231 DTD cells; assay type: cell-based; settings: for fluorescent signal in the presence of human NQO1 expression: MDA231 DTD cells, 100 μM, 4 hr (FIG. 5)
T1 construct: expressed in transfected cells; host or cells: MDA231 human breast cancer cell line, clonal derivative MDA231 DTD
Protocol: The human breast cancer cell line (MDA231^WT) and a clonal derivative (MDA231^DTD) engineered to express the human aerobic reductase, NAD(P)H dehydrogenase quinone 1 (DT-diaphorase; NQO1) under the control of a constitutive promoter were seeded into 96-well plates at a density of 1×10^5 cells/well. When samples were equilibrated to 37° C., 5% CO2 for 2 hr and compounds 1 to 15 were added to a final concentration of 100 μM for 4 hr. Test groups were cell-free culture media alone (control), MDA231^WT and MDA231^DTD. The fluorescence signal was monitored at 355/460 except for compounds 4 and 11 that were monitored at 405/585 and compounds 8 and 10 that were monitored at 355/585 and 355/535 respectively (FIG. 5).
In a further exemplification, the human breast cancer cell line (MDA231^WT) and a clonal derivative (MDA231^DTD) engineered to express the human NQO1 gene (DT-diaphorase) under the control of a constitutive promoter were seeded into 96-well tissue culture plates at 1×10^5 cells/well. Samples were equilibrated to 37° C., 5% CO2, compound (1) (6-nitro-4(1H)-quinolinone) was added to a final concentration of 300 μM. Test groups were culture media alone (control), MDA231^WT cells and MDA231^DTD cells. The rate of fluorescence signal generation at 355/460 was monitored as a function of time (FIG. 6).

[4] = molecular target: T2, E. coli nitroreductase (nfsB) (Escherichia coli, UniProt P38489); experiment: Entrapment of fluorescent products within nitroreductase expressing HCT116 cells; assay type: cell-based; settings: washed; for cellular retention of fluorescence in nitroreductase expressing but not parental HCT116 cells: 10 μM for 1.5 hr, 6 hours post-exposure
T2 construct: expressed in transfected cells; host or cells: MDA231 (MDA-231) human breast cancer cell line, clonal derivative MDA231 NTR
Protocol: The human colorectal cancer cell line (HCT116^WT) and a clonal derivative (HCT116^NTR) engineered to express the reporter gene E. coli nitroreductase (nfsB) under the control of a constitutive promoter were seeded onto glass coverslips at an equal density (50:50). Cells were equilibrated to 37° C., 5% CO2, and compound 1 and 13 was added to a final concentration of 100 μM for 1 hr. Cells were washed free of compound after 1 hour and fluorescence was monitored as a function of time (FIG. 8).
In further screening (FIG. 9), the human colorectal cancer cell line (HCT116^WT) and a clonal derivative (HCT116^NTR) engineered to express the reporter gene E. coli nitroreductase (nfsB) under the control of a constitutive promoter were seeded separately into a 96-well glass plate. Cells were equilibrated to 37° C., 5% CO2, and compounds were added to a final concentration of 10 μM for 1.5 hr. Cells were washed free of compound and fluorescence was monitored 6 hours post-exposure. […] The image has been rendered monochromatic for the purposes of publication quality.

[5] = molecular target: T2, E. coli nitroreductase (nfsB); experiment: Rate of fluorescence signal generation in stirred HCT116 NTR cell suspension; assay type: cell-based; settings: 300 μM, 355/460
Protocol: In a further exemplification, the human colorectal cancer cell line (HCT116^WT) and a clonal derivative (HCT116^NTR) engineered to express the reporter gene E. coli nitroreductase (nfsB) under the control of a constitutive promoter were suspended in stirred culture media at a density of 5×10^6 cells/ml. When samples were equilibrated to 37° C., 5% CO2, compound (2) (1-methyl-6-nitro-4(1H)-quinolinone) was added to a final concentration of 300 μM. Test groups were culture media alone (control), HCT116^WT and HCT116^NTR. The rate of fluorescence signal generation at 355/460 was monitored as a function of time (FIG. 4).

[6] = molecular target: T2, E. coli nitroreductase (nfsB); experiment: Nitroreductase specificity: fluorescence in MDA231 NTR versus MDA231 WT cells; assay type: cell-based; settings: for differential fluorescent signal MDA231 NTR versus MDA231 WT: 95% N2, 355/460, at 7.5 hours
Protocol: The human breast cancer cell line (MDA231^WT) and a clonal derivative (MDA231^NTR) engineered to overexpress the E. coli nitroreductase (nfsB) under the control of a constitutive promoter were seeded into 96-well plates at a density of 2×10^4 cells/well. When samples were equilibrated to 37° C., 95% N2, 5% CO2 for 2 hr and compound 2 or methyl 7-nitrocoumarin carboxylate (methyl 7-nitro-2-oxo-2H-chromene-3-carboxylate) were added to a final concentration of 300 μM. The fluorescence signal was monitored at 355/460 over a 7.5 hour time frame (FIG. 10).

[7] = molecular target: T3, Escherichia coli nfsB (NfsB) (Escherichia coli, UniProt P38489); experiment: Multiplexed reporter detection with compounds 4 and 16 in MDA-231 cells expressing nfsB; assay type: cell-based; settings: 100 μM, 4 h, platereader, MDA-231 WT/NfsB/CYPOR
T3 construct: expressed in transfected cells; host or cells: MDA231 (MDA-231) human breast cancer cell line, clonal derivative MDA231 NTR
Protocol: Compounds 4 and 16 (as representative nitro-substituted aromatic compounds of the present invention) were utilized to exemplify the ability to detect individual cell populations. […] 30,000 cells were seeded into a plastic 96-well plate in a volume of 0.1 mL. After 2 h attachment samples were incubated with either 200 μM 16 or 100 μM 4 by dilution of DMSO stock solutions into culture medium and addition of 0.1 mL directly into wells. Plates were incubated for 4 h before being read on a fluorescent platereader at Ex/Em 355/460 and 485/535. Values represent the fluorescence in the presence of cells—blank (fluorescence in the absence of cells). When the data were collated it was evident that the fluorescent output of each cell population could be identified with minimal interference from the other reductases-generated fluorescent molecules. […] To establish the single cell specificity of compounds 4 and 16 for detection of activities in a mixed (co-cultured) cell population, cells were examined by fluorescent microscopy following concurrent exposure to compounds 4 and 16. […] Samples were incubated at 37° C. for 45 minutes, washed three times in PBS and images were acquired on a Nikon TE-2000 inverted fluorescence microscope. […]

[8] = 300 μM, 95% N2, 355/460, 7.5 hour time frame

T2 sequence (P38489 whole entry): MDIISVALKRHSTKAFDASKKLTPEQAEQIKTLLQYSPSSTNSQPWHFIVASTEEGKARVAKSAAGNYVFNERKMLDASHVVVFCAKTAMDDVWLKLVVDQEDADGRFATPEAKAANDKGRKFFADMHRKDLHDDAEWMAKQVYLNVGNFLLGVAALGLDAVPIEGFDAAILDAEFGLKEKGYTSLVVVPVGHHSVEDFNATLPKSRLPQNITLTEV
T1 sequence (P15559 whole entry): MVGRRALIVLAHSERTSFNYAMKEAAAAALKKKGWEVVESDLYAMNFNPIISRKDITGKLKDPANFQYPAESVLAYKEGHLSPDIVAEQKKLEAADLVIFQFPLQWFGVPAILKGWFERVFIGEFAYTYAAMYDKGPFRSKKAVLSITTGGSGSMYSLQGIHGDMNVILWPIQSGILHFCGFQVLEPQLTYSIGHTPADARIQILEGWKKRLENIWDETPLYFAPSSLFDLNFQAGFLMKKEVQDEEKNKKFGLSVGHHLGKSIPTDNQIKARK
T3 sequence (P38489 whole entry): as the sequence (P38489 whole entry) above

Structure (SMILES): CN(C)CCCOc1ccnc2cc([N+](=O)[O-])ccc12 (as salt: trifluoroacetate) [Compound 14, N,N-dimethyl-3-[(7-nitro-4-quinolinyl)oxy]-1-propanamine]
- melting point: 146 to 149 °C

Structure (SMILES): O=c1c(Cl)c2oc3cc([N+](=O)[O-])ccc3nc-2c2ccccc12 [6-chloro-9-nitro-5H-benzo[a]phenoxazin-5-one]
- fluorescence in cell-free culture media (instability) [1]: measurable fluorescence; also recorded: lacks stability in culture medium under conditions of low oxygen

- increase in background florescence in culture media [2]: 5.3 fold
- fluorescence in cell-free culture media (instability) [1]: measurable fluorescence
Structure (SMILES): O=C(O)c1cc2ccc([N+](=O)[O-])cc2oc1=O [7-nitrocoumarin-3-carboxylic acid, reference compound]

Structure (SMILES): O=c1cc[nH]c2ccc([N+](=O)[O-])cc12 [Compound 1, 6-Nitro-4(1H)-quinolinone]
- fluorescence in wells with compound alone (control) or parental MDA231 WT ([3]; 300 μM, 355/460): No detectable fluorescence
- fluorescent signal generation by MDA231 DTD cells as a function of time ([3]; 300 μM, 355/460 (FIG. 6)): generate a fluorescent signal
- fluorescent signal in the presence of human NQO1 expression [3]: gave rise to a fluorescent signal
- retention of fluorescence in cells after wash ([4]; HCT116 WT:HCT116 NTR 50:50 co-culture, 100 μM for 1 hr, by 4 hours): no longer fluorescent
- increase in background florescence in culture media [2]: 1.4 fold
- aqueous stability compared with methyl-7-nitrocoumarin carboxylate and 7-nitrocoumarin-3-carboxylic acid [2]: superior aqueous stability

Structure (SMILES): Cn1ccc(=O)c2cc([N+](=O)[O-])ccc21 [Compound 2, 1-Methyl-6-nitro-4(1H)-quinolinone]
- time by which reduction by HCT116 NTR cells approached completion ([5]; 5×10^6 cells/ml): ≤ 9 h
- fluorescence in control or parental HCT116 WT cultures [5]: No detectable fluorescence
- fluorescence in control cell line MDA231 WT [6, 8]: no detectable fluorescence
- fluorescence in nitroreductase-expressing cell line MDA231 NTR [6, 8]: robust fluorescent signal
- differential fluorescent signal MDA231 NTR versus MDA231 WT ([6]; 300 μM): 480 fold
- performance as nitroreductase fluorescent reporter relative to methyl 7-nitrocoumarin carboxylate ([6]; FIG. 10): superiority
- increase in background florescence in culture media [2]: 1.4 fold
- aqueous stability compared with methyl-7-nitrocoumarin carboxylate and 7-nitrocoumarin-3-carboxylic acid [2]: superior aqueous stability

Structure (SMILES): Cc1cc(=O)c2cc([N+](=O)[O-])ccc2[nH]1 [Compound 3, 2-Methyl-6-nitro-4(1H)-quinolinone]
- fluorescent signal in the presence of human NQO1 expression [3]: gave rise to a fluorescent signal; also recorded: generate a fluorescent signal

Structure (SMILES): CN(C)CCNC(=O)c1cc([N+](=O)[O-])cc2c(=O)c3ccccc3[nH]c12 [Compound 4, N-[2-(Dimethylamino)ethyl]-2-nitro-9-oxo-9,10-dihydro-4-acridinecarboxamide]
- cellular retention of fluorescence in nitroreductase expressing but not parental HCT116 cells [4]: possessing cellular retention properties
- fluorescent output at Ex/Em 485/535 detecting Escherichia coli nfsB activity [7]: gave fluorescent output

- melting point: 94 to 96 °C
Structure (SMILES): COC(=O)CCCNS(=O)(=O)c1cccc2c([N+](=O)[O-])cccc12 [Compound 8, methyl 4-{[(5-nitro-1-naphthyl)sulfonyl]amino}butanoate]

Structure (SMILES): CN(C)CCCNc1ccnc2cc([N+](=O)[O-])ccc12 [Compound 15, N^1,N^1-Dimethyl-N^3-(7-nitro-4-quinolinyl)-1,3-propanediamine]
- cellular retention of fluorescence in nitroreductase expressing but not parental HCT116 cells [4]: possessing cellular retention properties

- melting point: 212 to 214 °C
Structure (SMILES): Cn1ccc(=O)c2cc(N)ccc21 [Compound 17, 6-Amino-1-methyl-4(1H)-quinolinone]

- melting point: 198 to 202 °C
Structure (SMILES): CN(C)CCNC(=O)c1cc(N)cc2c(=O)c3ccccc3[nH]c12 [Compound 18, 2-Amino-N-[2-(dimethylamino)ethyl]-9-oxo-9,10-dihydro-4-acridinecarboxamide]

- melting point: 99 to 101 °C
Structure (SMILES): CN(C)CCCCN1C(=O)c2cccc3cc(N)cc(c23)C1=O [Compound 19, 5-Amino-2-[4-(dimethylamino)butyl]-1H-benzo[de]isoquinoline-1,3(2H)-dione]

- melting point: 162 to 167 °C
Structure (SMILES): COC(=O)CCCNS(=O)(=O)c1ccc2cccc(N)c2c1 [Compound 22, Methyl 4-{[(8-amino-2-naphthyl)sulfonyl]amino}butanoate]

Structure (SMILES): COC(=O)c1cc2ccc([N+](=O)[O-])cc2oc1=O [methyl 7-nitrocoumarin carboxylate, methyl 7-nitro-2-oxo-2H-chromene-3-carboxylate, reference compound]
- fluorescence in control cell line MDA231 WT [6, 8]: measurable fluorescence
- differential fluorescent signal MDA231 NTR versus MDA231 WT ([6]; 300 μM): 1.6 fold
- increase in background florescence in culture media [2]: 4.2 fold
- fluorescence in cell-free culture media (instability) [1]: measurable fluorescence
